Read-outs that look alike come from different tables or passages of the source.
What was measured:
[1] = Physical and chemical properties: solubility in water; type: physicochemical
Description: (§1) Therefore, HC-1119 is an insoluble drug with high permeability, and belongs to the second category of BSC classification, and thus it is extremely important to improve the bioavailability thereof.

[2] = Permeability evaluated by Caco-2 cell model; type: in vitro ADME; details: human; 10 μM HC-1119, Caco-2 cell model; read-out: apparent permeability coefficient
Description: as §1

[3] = Clinical pharmacokinetic test of HC-1119 soft capsule; type: in vivo; details: human, plasma, oral, HC-1119 80 mg, day 84
Procedure: (1) Dosage: 80 mg/day (2 soft capsules of 40 mg)
(2) Administration way: continuous administration, once a day, the first administration being orally taken with empty stomach, thereafter no restriction on diet.
In the pharmacokinetic study, 9 subjects participated in this study.
The drug was taken by the subjects with empty stomach on the first day of the test, and 0˜0.5 h before taking the drug as well as 0.5 h, 0.75 h, 1 h, 2 h (±5 min), 4 h, 8 h, 12 h (±15 min), 24 h (±30 min) before administration on the second day), blood samples were collected, and 3 mL venous blood was drawn at each time point, then placed in an anticoagulant tube (the type of anticoagulant was determined according to the established analytical method).
0˜0.5 h before administration on day 7, 21, 35, 42, 56, 70, and 84 of continuous dosing, as well as 0.5 h, 0.75 h, 1 h, 2 h (±5 min), 4 h, 8 h, 12 h (±15 min), 24 h (±30 min, before administration on day 85) after administration on day 84, 3 mL venous blood was collected at each time point and placed in an anticoagulant tube (the type of anticoagulant was determined according to the established analytical method).
The sample should be centrifuged as soon as possible (about 3000 rpm, 10 min) to separate the plasma. The separated plasma samples need to be stored in two parts in a plasma cryotube. […]

[4] = 160 mg QD 49 days, cited from earlier work

## [2H]C([2H])([2H])NC(=O)c1ccc(N2C(=S)N(c3ccc(C#N)c(C(F)(F)F)c3)C(=O)C2(C)C)cc1F [HC-1119, 4-{3-[4-cyano-3-(trifluoromethyl)phenyl]-5,5-dimethyl-4-oxo-2-thio-1-imidazolidinyl}-2-fluoro-N-trideuteromethylbenzamide]
[1]
  solubility in water: difficult to dissolve in water
[2]
  Papp at 10 μM: 11.4 to 13.6 ×10⁻⁶ cm/s
[3]; read-out: steady-state AUC on day 84
  AUC at 84 day: 480 µg·h/mL
[3]; read-out: steady-state Ctrough on day 84
  concentration at 84 day: 18900 ng/mL

## CNC(=O)c1ccc(N2C(=S)N(c3ccc(C#N)c(C(F)(F)F)c3)C(=O)C2(C)C)cc1F [Enzalutamide, enzalutamide]
[4]; Median
  AUCtau: 295.6 µg·h/mL
  CL/F: 0.541 L/h
  Cmax: 15550 ng/mL
  Cmin: 11450 ng/mL
  tmax: 61.2 min
[4]; Min-Max
  AUCtau: 240 to 593 µg·h/mL
  Cmax: 11800 to 28000 ng/mL
  Cmin: 6920 to 22400 ng/mL
  tmax: 31.2 to 181 min
[4]; mean values
  AUCtau: 321.5 µg·h/mL
  CL/F: 0.520 L/h
  Cmax: 16590 ng/mL
  Cmin: 12000 ng/mL
[4]; mean values, listed as enzalutamide
  Cmin: 12000 ng/mL
